# In US20050009862A1, “Method for promoting uninterrupted sleep by administration of trospium chloride” (priority 2003, published 2005):
# Assays:
# Format in all cases: in vivo, human
# [1] = system: Patients with overactive bladder associated with predominant urge incontinence and complaining of frequent wakefulness throughout the night; test: Example 2: single dose before sleeping in overactive bladder patients with frequent wakefulness at night; conditions: 20 mg given 0.5 h before sleeping
# Method: Patients with overactive bladder associated with predominant urge incontinence and complaining of frequent wakefulness throughout the night due to repeated urges to urinate are given 20 mg of trospium chloride 0.5 h before sleeping.
# [2] = system: patients with overactive bladder (OAB) associated with predominant urge incontinence; test: Phase III multicenter, double-blind, placebo-controlled 12-week study of trospium chloride 20 mg twice daily (#IP631-003), efficacy from patient urinary diary
# Description: A multi-center, parallel, randomized, double-blind, placebo controlled study (#IP631-003) was based on data collected as a result of administering the IUSS during a 12-week^1-clinical trial of patients with overactive bladder (OAB) associated with predominant urge incontinence—for trospium chloride in the United States. For full details on the clinical study ethics, administration, objectives and design, selection of study population, treatments, efficacy and safety variables and statistical methodology please refer to the clinical study protocol #IP631-003 and the ‘Final Report for the Double-Blind Phase’ prepared by Quintiles Inc.
# The IUSS (Appendix A) asks patients about their ‘degree of urgency’ of their toilet voids (as meant to describe the urge to urinate). Patients are asked to rate the degree of urgency they felt before reaching the toilet for a toilet void (defined in the study as urination in the toilet). The instructions state that “Sometimes you may feel a very strong urge to urinate, and at other times, you may feel a milder urge prior to the onset of a toilet void. Rate this feeling by circling 0, 1, 2 or 3.” The instructions specify the following four response options: • 0: None—no urgency; • 1: Mild—awareness of urgency, but is easily tolerated and you can continue with your usual activity or tasks; • 2: Moderate—enough urgency discomfort that it interferes with or shortens your usual activity or tasks; and • 3: Severe—extreme urgency discomfort that abruptly stops all activity or tasks.
# This single-item Urgency Severity Scale was contained within a ‘Patient Urinary Diary’, which was completed by all patients during four discrete one-week periods in the course of the 12-week double-blind trial (baseline and study treatment weeks 1, 4 and 12). During each of the one-week data collection periods, patients completed the diary every day for a total of seven days. […] In the diary, an urge leak was defined as a leakage due to a very strong need or desire to urinate. A stress leak was defined as being a result of coughing, sneezing, standing, laughing, exercise, or other physical activity/movement exerting pressure on the bladder. In addition, during the last two days of the 7-day diary collection period (days 6 and 7), patients collected and measured all urine volume for each and every toilet void and recorded this within the diary.
# The study population for the clinical trial was 523 patients who received at least one dose of the study medication. Patients who entered the trial were required to have overactive bladder, defined as: • Urinary frequency of ≧70 toilet voids per 7 days (i.e. ≧10 toilet voids per day) as recorded in a patient urinary diary during a “washout” period; • Symptoms of urgency (i.e. sudden desire to toilet void); • Pure urge or mixed urinary incontinence with predominant urge incontinence.
# Trospium chloride is an anticholinergic agent with predominantly peripheral antimuscarinic activity. Its mechanism enables the detrusor to relax, inhibiting evacuation of the bladder. Patients were randomized on a 1:1 basis to receive either placebo or trospium chloride. Patients receiving trospium chloride took one 20-mg tablet twice daily. Those receiving placebo took one placebo tablet twice daily. The identity of the study medication was blinded.
# Patients completed a patient diary on a daily basis during four one-week data collection windows: baseline, week 1, week 4 and week 12. The diary collected the following patient-reported outcome data: • IUSS; • Number of toilet voids; • Number of urge incontinence episodes, and separately, stress incontinence episodes; • Volume voided (mL), collected on the last 2 of 7 days of the 7 day diary.
# A multicenter, double-blind, placebo-controlled study of 20 mg, twice-daily trospium chloride for 12 weeks followed by a 9-month, open-label treatment phase in patients with overactive bladder. […]
# [3] = system: patients with overactive bladder (OAB) associated with predominant urge incontinence; test: Same Phase III study, safety (adverse events, clinical laboratory tests, vital signs, ECG)
# Method: A multicenter, double-blind, placebo-controlled study of 20 mg, twice-daily trospium chloride for 12 weeks followed by a 9-month, open-label treatment phase in patients with overactive bladder.
# Multicenter, parallel, randomized, double-blind, placebo-controlled trial of patients with overactive bladder (OAB) associated with predominant urge incontinence. Patients who were currently receiving OAB drug therapy were to begin treatment after a 3-week washout period that included the 7-day patient urinary diary collection. Patients who were not currently receiving OAB drug therapy (i.e., naive patients) could begin treatment with study medication following their 7-day patient urinary diary collection and continued for a total double-blind treatment duration of 12 weeks.
# Patients were randomized on a 1:1 basis to receive either placebo or trospium chloride 20 mg twice daily during the double-blind treatment segment of the study. The randomization schedule for patients was stratified by the mean baseline number of micturitions (i.e., toilet voids) per 24 hours (collected via the patient urinary diary over 7 days); specifically, using the stratified categories of 10 to 15, 16 to 20, and ≧21 mean micturitions per 24 hours. Patients were periodically evaluated during the 12-week treatment segment and were to return on Day 84 for the Week 12 assessments.
# Adverse events (AEs), clinical laboratory tests, vital signs, and 12-lead electrocardiograms (ECGs).
# The Fisher's Exact test was used to analyze adverse events. Other categorical data were analyzed using the Cochran-Mantel-Haenszel (CMH) procedure with center as the stratification variable. For all continuous data analyses, an analysis of variance (ANOVA) model with center and treatment was used.
# [4] = system: People complaining of frequent wakefulness throughout the night due to repeated urges to urinate; test: Example 3: single dose before sleeping in people with frequent wakefulness at night; conditions: 20 mg given 1.0 h before sleeping
# Method: People complaining of frequent wakefulness throughout the night due to repeated urges to urinate are given 20 mg of trospium chloride 1.0 h before sleeping.
compound,measurement,setting,value
"O=C(O[C@H]1C[C@H]2CC[C@@H](C1)[N+]21CCCC1)C(O)(c1ccccc1)c1ccccc1 [Trospium, 3-alpha-benziloyloxynortropane-8-spiro-1′-pyrrolidinium chloride]",Sleep during the normal sleep period,[1],uninterrupted sleep throughout their normal sleep periods
same,Mean change from baseline: Number of toilet voids/24 hours,"[2]; Week 12, 20 mg oral tablet twice daily, N = 253, ITT:LOCF, placebo −1.29, P <0.0001",−2.37
same,Mean change from baseline: Volume voided (mL) per toilet void/24 hours,"[2]; Week 12, 20 mg twice daily, N = 248, ITT:LOCF, placebo 7.72, P <0.0001",32.14 mL
same,"Mean change from baseline: Urgency severity score associated with toilet voids (IUSS, 0-3)","[2]; Week 12, 20 mg twice daily, N = 253, ITT:LOCF, placebo −0.04, P 0.0001",−0.22
same,Mean change from baseline: Number of nocturnal toilet voids/24 hours,"[2]; Week 12, 20 mg twice daily, N = 253, ITT:LOCF, placebo −0.29, P 0.0255",−0.47
same,Mean change from baseline: Number of urge incontinence episodes/24 hours,"[2]; Week 12, 20 mg twice daily, N = 253, ITT:LOCF, placebo −1.98, P 0.0118 (ranked ANOVA)",−2.20
same,Change in average urgency severity per 24 hours compared with placebo,"[2]; at Weeks 1, 4, and 12",significant decrease
same,Change in average volume voided compared with placebo,"[2]; at Weeks 1, 4, and 12",statistically significant increase
same,Change in average number of toilet voids per 24 hours compared with placebo,"[2]; at Weeks 1, 4, and 12, improvement = decrease",statistically significant (p≦0.05) improvement
same,Change in average number of urge incontinence episodes per 24 hours compared with placebo,"[2]; at Weeks 4 and 12, improvement = decrease",statistically significant (p≦0.05) improvement
same,"Onset of action during Week 1 for effect on toilet voids, urge incontinence episodes, and total micturitions per 24 hours",[2]; consistently significant effects by Day 7,superior when compared with placebo
same,Average reduction in mean number of urgency episodes (IUSS severity >0),"[2]; over the 12-week trial, baseline mean 11.29, placebo reduction 1.08, p<0.01",2.30 urgency episodes
same,Overall safety and tolerability,"[3]; 20 mg twice daily, 12 weeks",safe and generally well tolerated
same,Patients with QTcF intervals >500 msec that had increased by >60 msec from baseline,"[3]; 1 patient in each treatment group, no clinical signs, resolved at endpoint",1 patient
same,Patients in whom study medication was permanently discontinued due to TEAEs (percent),"[3]; 12-week double-blind phase, 20 mg twice daily, placebo 5.7%",8.8%
same,Patients in whom study medication was permanently discontinued due to TEAEs (number),"[3]; 12-week double-blind phase, 20 mg twice daily, placebo 15 patients",23 patients
same,Patients who experienced an adverse event leading to death,"[3]; person, hemorrhagic stroke on Day 57, assessed as remotely related to study medication",1 patient
same,Most common TEAEs that led to discontinuation of study medication,[3]; trospium group,"dry mouth, constipation, abdominal pain NOS, and urinary retention"
same,Sleep during the normal sleep period,[4],uninterrupted sleep throughout their normal sleep periods
